Experimental data as given in BigSolDB 2.1.

c1ccc(P(c2ccccc2)c2ccccc2)cc1
Details	solubility (mole fraction)
in acetone, 303.2 K	0.089
in acetone, 308.1 K	0.12
in acetone, 313.4 K	0.14
in acetone, 318.2 K	0.19
in acetone, 323.5 K	0.25
in acetone, 327.8 K	0.33
in acetone, 333.1 K	0.42
in benzene, 303.3 K	0.069
in benzene, 308.6 K	0.095
in benzene, 312.9 K	0.12
in benzene, 318.1 K	0.16
in benzene, 323.2 K	0.22
in benzene, 328.1 K	0.28
in benzene, 333.2 K	0.37
in ethanol, 303.5 K	0.0095
in ethanol, 308.3 K	0.012
in ethanol, 313.3 K	0.016
in ethanol, 318.6 K	0.022
in ethanol, 323.2 K	0.028
in ethanol, 327.9 K	0.038
in ethanol, 333 K	0.05
in isopropanol, 303.1 K	0.0077
in isopropanol, 308.4 K	0.01
in isopropanol, 313.3 K	0.014
in isopropanol, 318.2 K	0.019
in isopropanol, 322.9 K	0.025
in isopropanol, 328.4 K	0.033
in isopropanol, 333.2 K	0.045
in toluene, 302.4 K	0.05
in toluene, 308.2 K	0.07
in toluene, 313.7 K	0.1
in toluene, 318.2 K	0.13
in toluene, 323.3 K	0.18
in toluene, 328.3 K	0.24
in toluene, 333.4 K	0.32
